Test results reported in PubChem BioAssay (NCI).
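In this assay, cells in 96-well plates receive the compound at five concentrations for 48 hours. Endpoints are linearly interpolated between the surrounding concentrations. GI50 is the concentration that inhibits growth by half. TGI is the concentration that stops growth completely.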

Experiments:
Assay in all cases: NCI anticancer screen, dose series, 48 h
[1] = test system: MALME-3M melanoma
[2] = test system: NCI-H23 lung
[3] = test system: NCI-H522 lung
[4] = test system: OVCAR-3 ovarian
[5] = test system: RPMI-8226 leukemia
[6] = test system: SF-539 CNS
[7] = test system: SK-MEL-5 melanoma
[8] = test system: SN12C renal
[9] = test system: UACC-257 melanoma
[10] = test system: UO-31 renal

O=C1OC(=O)c2c1c(-c1ccccc1)cn2-c1ccc(Cl)cc1
TGI [1]: > 100 µM
TGI [2]: > 100 µM
TGI [3]: > 100 µM
TGI [4]: > 100 µM
TGI [5]: > 100 µM
TGI [6]: > 100 µM
TGI [7]: 27.9 µM
TGI [8]: > 100 µM
TGI [9]: > 100 µM
TGI [10]: > 100 µM

Cc1ccccc1NC(=S)Nc1ccccn1
GI50 [1]: > 100 µM
TGI [1]: > 100 µM
GI50 [2]: 85.3 µM
TGI [2]: > 100 µM
GI50 [3]: > 100 µM
TGI [3]: > 100 µM
GI50 [4]: > 100 µM
TGI [4]: > 100 µM
GI50 [5]: 62.7 µM
TGI [5]: > 100 µM
GI50 [6]: > 100 µM
TGI [6]: > 100 µM
GI50 [7]: 47.2 µM
TGI [7]: > 100 µM
GI50 [8]: > 100 µM
TGI [8]: > 100 µM
GI50 [9]: > 100 µM
TGI [9]: > 100 µM
GI50 [10]: > 100 µM
TGI [10]: > 100 µM

Nc1ccn(C2OC(CO)C(O)C2F)c(=O)n1 (stereo not given)
GI50 [1]: > 5000 µM
TGI [1]: > 5000 µM
GI50 [2]: > 5000 µM
TGI [2]: > 5000 µM
GI50 [3]: 3990 µM
TGI [3]: > 5000 µM
GI50 [4]: > 5000 µM
TGI [4]: > 5000 µM
GI50 [5]: > 5000 µM
TGI [5]: > 5000 µM
GI50 [6]: > 5000 µM
TGI [6]: > 5000 µM
GI50 [7]: > 5000 µM
TGI [7]: > 5000 µM
GI50 [8]: > 5000 µM
TGI [8]: > 5000 µM
GI50 [9]: > 5000 µM
TGI [9]: > 5000 µM
GI50 [10]: > 5000 µM
TGI [10]: > 5000 µM

C=C(Cn1c(=O)c2ccccc2c2ccccc21)c1ccc(C(=O)Nc2ccccc2N)cc1
GI50 [1]: 5.19 µM
TGI [1]: > 92.8 µM
GI50 [2]: 30.3 µM
TGI [2]: > 100 µM
GI50 [3]: 4.55 µM
TGI [3]: > 94.4 µM
GI50 [4]: 33.7 µM
TGI [4]: > 100 µM
GI50 [5]: 0.765 µM
TGI [5]: 4.36 µM
GI50 [6]: 21.9 µM
TGI [6]: > 100 µM
GI50 [7]: 20.6 µM
TGI [7]: > 100 µM
GI50 [8]: 11.3 µM
TGI [8]: > 100 µM
GI50 [9]: > 41.4 µM
TGI [9]: > 100 µM
GI50 [10]: 2.28 µM
TGI [10]: > 63.2 µM

N#C/C(=C\c1ccccc1O)C(N)=O
TGI [1]: > 100 µM
TGI [2]: > 100 µM
TGI [3]: > 100 µM
TGI [4]: > 100 µM
TGI [5]: > 100 µM
TGI [6]: > 100 µM
TGI [7]: > 100 µM
TGI [8]: > 100 µM
TGI [9]: > 100 µM
TGI [10]: > 100 µM

C=C1C(=O)O[C@H]2[C@H]1CC/C(CNC(=O)/C=C/c1ccc(Br)cc1)=C\CC[C@@]1(C)O[C@@H]21
GI50 [1]: 1.33 µM
TGI [1]: 2.78 µM
GI50 [2]: 1.41 µM
TGI [2]: 3.05 µM
GI50 [3]: 0.711 µM
TGI [3]: 2.3 µM
GI50 [4]: 0.511 µM
TGI [4]: 1.74 µM
GI50 [5]: 0.448 µM
TGI [5]: 3.26 µM
GI50 [6]: 0.873 µM
TGI [6]: 2.28 µM
GI50 [7]: 1.6 µM
TGI [7]: 2.96 µM
GI50 [8]: 1.22 µM
TGI [8]: 3.58 µM
GI50 [9]: 1.43 µM
TGI [9]: 2.97 µM
GI50 [10]: 0.97 µM
TGI [10]: 2.19 µM

COc1ccc2c(c1)C(=O)c1c-2n(CCCN)c(=O)c2ccccc12
GI50 [1]: 0.031 µM
TGI [1]: 0.352 µM
GI50 [2]: 0.0497 µM
TGI [2]: 1.02 µM
GI50 [3]: 0.0123 µM
TGI [3]: 0.505 µM
GI50 [4]: 0.0957 µM
TGI [4]: 0.798 µM
GI50 [5]: < 0.0114 µM
TGI [5]: 0.0316 µM
GI50 [6]: 0.0609 µM
TGI [6]: 0.646 µM
GI50 [7]: 0.0586 µM
TGI [7]: 0.477 µM
GI50 [8]: < 0.016 µM
TGI [8]: 0.118 µM
GI50 [9]: 0.383 µM
TGI [9]: 2.07 µM
GI50 [10]: 0.0417 µM
TGI [10]: 0.486 µM
